In ChEMBL document CHEMBL4507276 (2021):

How the values were obtained:
[1] = target: Ribosomal protein S6 kinase alpha-5 (Homo sapiens) (UniProt O75582); settings: Compound concentration 1000.0 nM
[2] = target: Alpha-2C adrenergic receptor (Homo sapiens) (UniProt P18825); settings: Compound concentration 10.0 uM
[3] = target: Gamma-aminobutyric acid receptor subunit alpha-1 (Rattus norvegicus) (UniProt P62813); assay: BZD/CENTR/R Cerep selectivity data (BI); settings: Compound concentration 20.0 uM
Chain of Gamma-aminobutyric acid receptor subunit alpha-1 (Rattus norvegicus) (P62813 whole entry): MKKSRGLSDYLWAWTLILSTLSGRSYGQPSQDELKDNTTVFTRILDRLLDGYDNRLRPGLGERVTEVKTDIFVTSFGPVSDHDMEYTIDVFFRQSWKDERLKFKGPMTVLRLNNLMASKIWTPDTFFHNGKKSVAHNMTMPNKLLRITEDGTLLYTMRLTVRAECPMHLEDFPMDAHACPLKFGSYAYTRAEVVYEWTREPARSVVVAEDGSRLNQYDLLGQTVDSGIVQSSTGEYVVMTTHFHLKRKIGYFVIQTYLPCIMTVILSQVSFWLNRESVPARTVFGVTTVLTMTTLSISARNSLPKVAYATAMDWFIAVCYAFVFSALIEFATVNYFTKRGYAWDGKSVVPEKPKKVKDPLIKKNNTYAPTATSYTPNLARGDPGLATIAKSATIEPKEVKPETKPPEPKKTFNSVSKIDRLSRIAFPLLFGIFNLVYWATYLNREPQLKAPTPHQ

[4] = target: Vasopressin V2 receptor (Homo sapiens) (UniProt P30518); assay: V2/H Cerep selectivity data (BI); settings: Compound concentration 20.0 uM
Chain of Vasopressin V2 receptor (Homo sapiens) (P30518 whole entry): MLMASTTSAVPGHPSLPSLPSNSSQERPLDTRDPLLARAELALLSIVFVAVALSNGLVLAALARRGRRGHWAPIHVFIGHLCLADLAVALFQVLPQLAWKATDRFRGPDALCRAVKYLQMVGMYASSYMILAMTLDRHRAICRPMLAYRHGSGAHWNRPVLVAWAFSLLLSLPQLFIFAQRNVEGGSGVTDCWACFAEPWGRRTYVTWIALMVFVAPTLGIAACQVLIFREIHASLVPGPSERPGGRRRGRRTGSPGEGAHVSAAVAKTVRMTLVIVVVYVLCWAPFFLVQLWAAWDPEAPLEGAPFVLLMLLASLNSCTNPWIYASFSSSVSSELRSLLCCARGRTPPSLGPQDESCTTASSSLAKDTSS

[5] = target: 5-hydroxytryptamine receptor 2B (Homo sapiens) (UniProt P41595); assay: 5HT2B/HU Eurofins-Panlabs selectivity data (BI); settings: Compound concentration 10.0 uM
[6] = target: Epidermal growth factor receptor (Homo sapiens) (UniProt P00533); assay: EGF/HU Eurofins-Panlabs selectivity data (BI); settings: Compound concentration 10.0 uM
[7] = target: Endothelin-1 receptor (Homo sapiens) (UniProt P25101); assay: ETA/HU Eurofins-Panlabs selectivity data (BI); settings: Compound concentration 10.0 uM
[8] = target: Glutamate receptor ionotropic, kainate 1 (Rattus norvegicus) (UniProt P22756); assay: KAINATE/R Eurofins-Panlabs selectivity data (BI); settings: Compound concentration 10.0 uM
Chain of Glutamate receptor ionotropic, kainate 1 (Rattus norvegicus) (P22756 whole entry): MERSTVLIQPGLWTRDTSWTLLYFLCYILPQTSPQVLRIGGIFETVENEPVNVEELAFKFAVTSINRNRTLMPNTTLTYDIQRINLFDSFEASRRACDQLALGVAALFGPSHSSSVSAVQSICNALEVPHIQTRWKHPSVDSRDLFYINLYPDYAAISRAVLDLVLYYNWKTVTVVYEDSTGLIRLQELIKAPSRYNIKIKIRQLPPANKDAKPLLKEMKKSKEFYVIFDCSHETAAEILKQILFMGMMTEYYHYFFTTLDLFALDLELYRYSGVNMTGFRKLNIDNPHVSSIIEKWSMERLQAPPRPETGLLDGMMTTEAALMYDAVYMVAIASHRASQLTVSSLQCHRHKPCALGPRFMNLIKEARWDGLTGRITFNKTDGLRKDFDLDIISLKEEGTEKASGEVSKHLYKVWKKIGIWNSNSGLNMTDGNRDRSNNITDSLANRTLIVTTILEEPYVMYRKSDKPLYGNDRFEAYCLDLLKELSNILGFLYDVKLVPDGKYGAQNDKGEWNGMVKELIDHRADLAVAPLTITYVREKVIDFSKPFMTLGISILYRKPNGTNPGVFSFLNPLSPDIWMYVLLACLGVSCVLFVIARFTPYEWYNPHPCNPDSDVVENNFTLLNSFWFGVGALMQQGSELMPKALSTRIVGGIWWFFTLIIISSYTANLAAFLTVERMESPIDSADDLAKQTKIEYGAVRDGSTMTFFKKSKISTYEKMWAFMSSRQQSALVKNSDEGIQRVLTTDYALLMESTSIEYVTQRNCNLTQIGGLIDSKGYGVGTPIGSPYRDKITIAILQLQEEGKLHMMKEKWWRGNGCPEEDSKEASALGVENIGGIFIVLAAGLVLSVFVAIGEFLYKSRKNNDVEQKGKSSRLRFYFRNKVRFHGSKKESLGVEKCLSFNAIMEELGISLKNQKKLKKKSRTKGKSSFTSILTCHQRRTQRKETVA

[9] = target: Mitogen-activated protein kinase kinase kinase 8 (Homo sapiens) (UniProt P41279); assay: MAP3K8 Invitrogen selectivity data (BI); settings: Compound concentration 3.0 uM
[10] = target: Mitogen-activated protein kinase kinase kinase 9 (Homo sapiens) (UniProt P80192); assay: MAP3K9 Invitrogen selectivity data (BI); settings: Compound concentration 3.0 uM
Chain of Mitogen-activated protein kinase kinase kinase 9 (Homo sapiens) (P80192 whole entry, looked up): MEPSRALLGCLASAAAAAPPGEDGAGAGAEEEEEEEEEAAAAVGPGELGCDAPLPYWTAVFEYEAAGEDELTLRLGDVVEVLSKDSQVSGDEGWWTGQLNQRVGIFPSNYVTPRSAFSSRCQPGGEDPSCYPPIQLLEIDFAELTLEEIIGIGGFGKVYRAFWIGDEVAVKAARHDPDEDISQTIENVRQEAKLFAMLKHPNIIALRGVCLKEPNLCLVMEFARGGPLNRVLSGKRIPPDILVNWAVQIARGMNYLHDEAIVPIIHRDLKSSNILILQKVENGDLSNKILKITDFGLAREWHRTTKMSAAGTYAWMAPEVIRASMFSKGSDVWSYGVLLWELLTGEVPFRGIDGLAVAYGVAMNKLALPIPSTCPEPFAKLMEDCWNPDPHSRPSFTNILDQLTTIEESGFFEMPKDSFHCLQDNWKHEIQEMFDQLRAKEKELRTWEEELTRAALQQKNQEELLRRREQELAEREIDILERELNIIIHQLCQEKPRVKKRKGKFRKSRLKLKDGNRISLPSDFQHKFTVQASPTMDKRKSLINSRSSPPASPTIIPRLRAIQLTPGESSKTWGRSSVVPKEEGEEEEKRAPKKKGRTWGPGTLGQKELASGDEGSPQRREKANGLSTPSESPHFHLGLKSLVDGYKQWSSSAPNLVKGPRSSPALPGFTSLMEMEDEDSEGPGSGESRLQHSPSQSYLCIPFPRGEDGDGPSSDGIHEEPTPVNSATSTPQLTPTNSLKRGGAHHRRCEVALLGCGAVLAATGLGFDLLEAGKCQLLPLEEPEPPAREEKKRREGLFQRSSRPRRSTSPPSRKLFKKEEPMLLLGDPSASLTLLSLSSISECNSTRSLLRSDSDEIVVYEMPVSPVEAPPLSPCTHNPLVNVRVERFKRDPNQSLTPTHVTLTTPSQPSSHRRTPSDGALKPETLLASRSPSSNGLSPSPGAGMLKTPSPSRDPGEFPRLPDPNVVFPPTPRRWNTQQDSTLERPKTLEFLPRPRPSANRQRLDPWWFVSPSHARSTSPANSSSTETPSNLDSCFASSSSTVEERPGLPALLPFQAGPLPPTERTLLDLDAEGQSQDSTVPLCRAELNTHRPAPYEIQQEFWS

[11] = target: T1, Tyrosine-protein kinase Mer (Homo sapiens) (UniProt Q12866); assay: MERTK Invitrogen selectivity data (BI); settings: Compound concentration 3.0 uM
T1 sequence (whole entry): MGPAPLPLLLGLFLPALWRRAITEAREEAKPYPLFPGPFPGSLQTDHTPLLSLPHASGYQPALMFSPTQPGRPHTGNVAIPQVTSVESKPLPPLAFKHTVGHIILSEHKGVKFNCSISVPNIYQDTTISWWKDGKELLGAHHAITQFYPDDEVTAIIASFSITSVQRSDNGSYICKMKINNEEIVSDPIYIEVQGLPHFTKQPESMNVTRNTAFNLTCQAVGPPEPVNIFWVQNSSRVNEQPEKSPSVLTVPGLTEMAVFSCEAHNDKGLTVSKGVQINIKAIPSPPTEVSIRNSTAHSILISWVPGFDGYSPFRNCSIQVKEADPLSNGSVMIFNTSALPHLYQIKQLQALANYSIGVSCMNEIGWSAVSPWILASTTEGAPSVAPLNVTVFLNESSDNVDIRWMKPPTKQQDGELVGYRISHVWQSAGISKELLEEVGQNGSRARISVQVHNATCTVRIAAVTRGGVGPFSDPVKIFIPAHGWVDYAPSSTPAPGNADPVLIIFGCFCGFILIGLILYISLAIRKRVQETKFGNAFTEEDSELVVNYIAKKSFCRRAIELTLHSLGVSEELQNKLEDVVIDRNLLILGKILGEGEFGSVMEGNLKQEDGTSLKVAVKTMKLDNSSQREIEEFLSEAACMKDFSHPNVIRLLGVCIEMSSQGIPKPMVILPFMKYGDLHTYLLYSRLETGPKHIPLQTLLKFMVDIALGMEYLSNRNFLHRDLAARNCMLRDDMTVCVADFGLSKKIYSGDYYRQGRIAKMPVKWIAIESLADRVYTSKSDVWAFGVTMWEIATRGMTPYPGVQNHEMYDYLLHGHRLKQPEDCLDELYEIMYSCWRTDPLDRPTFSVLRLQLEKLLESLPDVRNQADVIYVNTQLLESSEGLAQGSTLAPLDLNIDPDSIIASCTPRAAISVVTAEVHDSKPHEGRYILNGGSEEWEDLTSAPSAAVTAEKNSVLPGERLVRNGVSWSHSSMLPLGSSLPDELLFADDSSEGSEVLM

[12] = target: Serine/threonine-protein kinase PAK 3 (Homo sapiens) (UniProt O75914); assay: PAK3 Invitrogen selectivity data (BI); settings: Compound concentration 3.0 uM
Chain of Serine/threonine-protein kinase PAK 3 (Homo sapiens) (O75914 whole entry, looked up): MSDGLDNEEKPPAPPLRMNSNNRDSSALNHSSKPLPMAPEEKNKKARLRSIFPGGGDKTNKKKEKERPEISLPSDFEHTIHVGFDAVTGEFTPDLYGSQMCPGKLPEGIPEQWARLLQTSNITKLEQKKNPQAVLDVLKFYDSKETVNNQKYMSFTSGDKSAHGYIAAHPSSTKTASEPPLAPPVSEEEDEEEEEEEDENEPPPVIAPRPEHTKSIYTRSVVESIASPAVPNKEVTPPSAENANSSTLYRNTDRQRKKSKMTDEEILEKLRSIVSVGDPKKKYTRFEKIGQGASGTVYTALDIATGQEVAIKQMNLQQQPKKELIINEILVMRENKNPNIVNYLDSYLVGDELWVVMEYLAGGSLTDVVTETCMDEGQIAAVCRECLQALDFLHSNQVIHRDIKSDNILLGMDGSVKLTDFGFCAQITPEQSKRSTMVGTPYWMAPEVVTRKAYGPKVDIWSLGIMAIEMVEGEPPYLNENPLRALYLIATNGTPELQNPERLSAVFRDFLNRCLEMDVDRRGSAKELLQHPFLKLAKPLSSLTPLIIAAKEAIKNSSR

[13] = target: Protein kinase C zeta type (Homo sapiens) (UniProt Q05513); assay: PRKCZ Invitrogen selectivity data (BI); settings: Compound concentration 3.0 uM
Chain of Protein kinase C zeta type (Homo sapiens) (Q05513 whole entry): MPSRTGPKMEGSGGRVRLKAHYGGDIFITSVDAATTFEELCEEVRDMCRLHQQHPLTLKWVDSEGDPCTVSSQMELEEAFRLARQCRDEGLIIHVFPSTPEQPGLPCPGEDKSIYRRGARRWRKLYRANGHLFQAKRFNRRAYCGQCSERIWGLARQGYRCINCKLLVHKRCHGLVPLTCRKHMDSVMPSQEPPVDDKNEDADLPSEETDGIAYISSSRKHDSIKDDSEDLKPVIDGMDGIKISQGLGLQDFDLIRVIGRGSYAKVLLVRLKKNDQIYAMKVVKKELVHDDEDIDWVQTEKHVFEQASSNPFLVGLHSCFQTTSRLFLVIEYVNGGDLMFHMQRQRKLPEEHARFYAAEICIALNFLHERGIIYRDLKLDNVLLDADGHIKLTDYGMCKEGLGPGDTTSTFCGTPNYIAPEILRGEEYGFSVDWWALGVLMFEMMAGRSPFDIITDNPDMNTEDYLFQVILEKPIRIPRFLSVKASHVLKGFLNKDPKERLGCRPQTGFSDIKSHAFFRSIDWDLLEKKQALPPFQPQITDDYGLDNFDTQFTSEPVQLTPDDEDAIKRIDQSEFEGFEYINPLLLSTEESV

[14] = target: RAF proto-oncogene serine/threonine-protein kinase (Homo sapiens) (UniProt P04049); assay: RAF1 Invitrogen selectivity data (BI); settings: Compound concentration 3.0 uM
[15] = target: Ribosomal protein S6 kinase alpha-5 (Homo sapiens) (UniProt O75582); assay: RPS6KA5 Invitrogen selectivity data (BI); settings: Compound concentration 3.0 uM
[16] = target: T2, Serine/threonine-protein kinase Sgk2 (Homo sapiens) (UniProt Q9HBY8); assay: SGK2 Invitrogen selectivity data (BI); settings: Compound concentration 3.0 uM
T2 sequence (whole entry): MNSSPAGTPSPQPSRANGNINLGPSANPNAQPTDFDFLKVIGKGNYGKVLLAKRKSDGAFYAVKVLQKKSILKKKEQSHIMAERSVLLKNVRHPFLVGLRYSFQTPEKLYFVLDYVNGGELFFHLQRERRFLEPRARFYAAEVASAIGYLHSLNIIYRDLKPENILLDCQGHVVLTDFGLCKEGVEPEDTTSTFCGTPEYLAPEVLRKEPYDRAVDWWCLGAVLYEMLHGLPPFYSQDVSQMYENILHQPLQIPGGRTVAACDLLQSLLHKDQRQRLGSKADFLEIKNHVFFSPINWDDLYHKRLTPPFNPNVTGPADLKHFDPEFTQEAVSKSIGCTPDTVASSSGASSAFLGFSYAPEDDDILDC

[17] = target: Sphingosine kinase 1 (Homo sapiens) (UniProt Q9NYA1); assay: SPHK1 Invitrogen selectivity data (BI); settings: Compound concentration 3.0 uM
[18] = target: Proto-oncogene tyrosine-protein kinase Src (Homo sapiens) (UniProt P12931); assay: SRC Invitrogen selectivity data (BI); settings: Compound concentration 3.0 uM
[19] = target: T3, Serine/threonine-protein kinase 3 (Homo sapiens) (UniProt Q13188); assay: STK3 Invitrogen selectivity data (BI); settings: Compound concentration 3.0 uM
T3 sequence (whole entry): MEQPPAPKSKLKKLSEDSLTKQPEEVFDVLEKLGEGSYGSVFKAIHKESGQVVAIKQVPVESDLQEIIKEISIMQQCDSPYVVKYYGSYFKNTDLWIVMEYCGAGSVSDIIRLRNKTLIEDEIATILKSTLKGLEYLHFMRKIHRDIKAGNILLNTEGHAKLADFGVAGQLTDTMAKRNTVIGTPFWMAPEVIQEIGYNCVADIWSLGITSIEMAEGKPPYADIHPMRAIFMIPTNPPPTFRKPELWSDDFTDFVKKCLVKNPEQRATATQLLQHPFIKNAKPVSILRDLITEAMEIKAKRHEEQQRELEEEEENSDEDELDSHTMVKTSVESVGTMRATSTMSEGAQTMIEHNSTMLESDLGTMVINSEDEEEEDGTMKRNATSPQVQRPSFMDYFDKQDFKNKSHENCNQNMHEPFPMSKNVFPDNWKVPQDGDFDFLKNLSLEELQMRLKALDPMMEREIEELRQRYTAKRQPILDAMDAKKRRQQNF

Chain of Ribosomal protein S6 kinase alpha-5 (Homo sapiens) (O75582 whole entry, looked up): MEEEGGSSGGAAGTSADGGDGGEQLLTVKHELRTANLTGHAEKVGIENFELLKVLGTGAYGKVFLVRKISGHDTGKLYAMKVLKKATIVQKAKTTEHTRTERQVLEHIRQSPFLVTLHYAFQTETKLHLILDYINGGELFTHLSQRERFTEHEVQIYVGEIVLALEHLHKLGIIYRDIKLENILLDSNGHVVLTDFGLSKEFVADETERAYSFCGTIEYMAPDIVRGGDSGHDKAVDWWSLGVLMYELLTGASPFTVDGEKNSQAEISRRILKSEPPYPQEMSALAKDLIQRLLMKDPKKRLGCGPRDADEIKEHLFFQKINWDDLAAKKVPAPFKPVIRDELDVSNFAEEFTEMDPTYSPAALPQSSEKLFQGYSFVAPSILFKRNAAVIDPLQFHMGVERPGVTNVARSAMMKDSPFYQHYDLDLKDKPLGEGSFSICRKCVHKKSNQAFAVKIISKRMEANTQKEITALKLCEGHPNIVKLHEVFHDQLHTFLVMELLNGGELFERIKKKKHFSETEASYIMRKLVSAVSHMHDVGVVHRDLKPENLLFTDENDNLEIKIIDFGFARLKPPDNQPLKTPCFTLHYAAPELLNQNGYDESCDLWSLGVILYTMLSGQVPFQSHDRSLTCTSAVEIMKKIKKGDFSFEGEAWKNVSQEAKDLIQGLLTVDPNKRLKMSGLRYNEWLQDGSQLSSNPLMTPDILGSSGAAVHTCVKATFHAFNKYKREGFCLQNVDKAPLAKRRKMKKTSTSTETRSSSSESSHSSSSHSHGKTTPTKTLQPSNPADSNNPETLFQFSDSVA

CN(C)C(=O)Cn1cc(-c2nc(C3(c4ccc(-c5cnc(N)nc5)cc4)CC3)no2)cn1 [BI 0153]
inactive: residual activity [1] 67% | inhibition [2] 4.1%

CN(C)C(=O)Cn1cc(-c2nc([C@@](C)(c3ccc(-c4cnc(N)nc4)cc3)C3CC3)no2)cn1 [BI 665915]
inactive: residual activity [3] 117% | residual activity [4] 102% | residual activity [5] 97% | residual activity [6] 103% | residual activity [7] 98% | residual activity [8] 90% | residual activity [9] 93.5% | residual activity [10] 91% | residual activity [11] 94% | residual activity [12] 94.5% | residual activity [13] 100% | residual activity [14] 97% | residual activity [15] 97.5% | residual activity [16] 97% | residual activity [17] 95.5% | residual activity [18] 90.5% | residual activity [19] 104%
